Data set [1] deals with F. graminearum isolate B-4-5A. In kind it is in vivo, Fusarium graminearum on wheat (Alsen and Frontana cultivars). Particulars: 30 μg/mL aminoglycoside mixed in inoculum, wheat leaves.
The test system of a further data set is wheat seedlings. The following applies: in vivo.
The test system of data set [2] is F. graminearum. In kind it is cell-based, Fusarium graminearum. Particulars: PDB+casamino acids containing 0.02, 0.08 or 0.2% (v/v) surfactant.
Data set [3] relates to Enterococcus faecalis (ATCC29212). It counts as cell-based. The following applies: 35° C., 12-18 hrs.
For the next data set, the system named is Ulocladium sp. The data set can be described thus: MIC against screened fungi.
In the next data set the test system is screened fungi. Nature of the data set: MIC against screened fungi (all species). It counts as cell-based.
For data set [4], the system named is Staphylococcus aureus ATCC 25923. In kind it is cell-based. Particulars: 35° C., 12-18 hrs.
For data set [5], the system named is F. graminearum. It counts as cell-based, Fusarium graminearum. Particulars: for lethality to F. graminearum: in the range of 500 to 1 μg/mL.
The test system of data set [6] is Klebsiella pneumoniae (ATCC 138883). It counts as cell-based. The following applies: 35° C., 12-18 hrs.
For data set [7], the system named is Pseudomonas aeruginosa (ATCC 27853). In kind it is cell-based. The following applies: 35° C., 12-18 hrs.
In a further data set the test system is Fusarium oxysporium. The data set can be described thus: MIC against screened fungi.
Data set [8] concerns Escherichia coli TG1 (pET28a). It counts as cell-based. Particulars: 35° C., 12-18 hrs.
Data set [9] has as its system selected bacterial pathogens. Nature of the data set: Antibacterial MIC over the selected bacterial pathogens. The following applies: read-out: Corresponding MIC values (span over the tested bacteria). It counts as cell-based. As to the method:
The minimum inhibitory concentration of M038 was determined for selected bacterial pathogens. For purposes of the experiments discussed in this paragraph, the minimum inhibitory concentration (MIC) is defined as the minimum concentration of compound needed to inhibit the growth of bacteria. A solution of selected bacteria was inoculated Trypticase Soy broth at 35° C. and incubated for 1-2 hours. Following incubation, the bacterial concentrations were determined, and diluted with broth, if necessary, to an absorption value of 0.08 to 0.1 at 625 nm. The adjusted inoculated medium (100 μL) was diluted with 10 ml broth, and then applied to a 96-well microtiter plate (50 μL). A series of solutions (50 μL each in 2-fold dilution) of M038 was added to the testing wells. The 96-well plate was incubated at 35° C. for 12-18 hrs. The MIC results were repeated at least three times.

In brackets after ≈: the same amount, converted by molar mass.

Usually MIC stands for the least concentration at which growth counts as inhibited.

Regarding `NCC1O[C@H](OC2C(N)CC(N)[C@@H](OC3OCC(O)[C@@H](N)[C@H]3O)[C@H]2O)C(N)[C@@H](O)[C@@H]1O` (stereo partly drawn) [JL40, reference compound], the “lesion development / leaf infection by F. graminearum” value (shortened to “lesion development / leaf infection”) in [1] is on record as “did not prevent leaf infection”. For the same molecule, in the data set on wheat seedlings, the phytotoxicity result was “phytotoxic” and the “phytotoxicity (relative chlorophyll content)” value is on record as “phytotoxic”. Further, the “effect of surfactant on in vitro activity (MIC)” value (“effect of surfactant” for short) in the data set on F. graminearum [2] was “did not affect”.
Consider `CCCCCCCCO[C@H]1[C@H](O)[C@@H](O)[C@@H](O[C@@H]2[C@@H](O)[C@H](O[C@H]3O[C@H](CN)[C@@H](O)[C@H](O)[C@H]3N)[C@@H](N)C[C@H]2N)O[C@@H]1C` [JL038, 6-O-(6-Deoxy-4-O-n-octyl-α-D-glucopyranosyl)neamine], for which the “Minimal inhibitory concentration (MIC)” value in [3] was 125-250 μ/mL; in data set [4], 250 μ/mL; in data set [6], 250 μ/mL; in data set [7] it was 250 µg/mL (≈ 431 µM); in data set [8], 125-250 μ/mL. Moreover, the MIC against Ulocladium sp. and in the data set on Fusarium oxysporium was 7.8 µg/mL (≈ 13.4 µM) each time. Besides, the “MICs for all species of screened fungi” value with screened fungi (all screened fungi) was no more than 31.3 µg/mL. Further, the “lesion development / leaf infection” value in data set [1] is reported as “prevents lesion development”. Further, the “chlorophyll damage (relative chlorophyll content)” value with wheat seedlings is “no chlorophyll damages”. Besides, the phytotoxicity entry in the data set with wheat seedlings is reported as “no phytotoxicity”. Further, the “phytotoxicity (chlorosis in the absence of fungal growth)” value in the data set on wheat seedlings was “showed phytotoxicity”. In the data set with wheat seedlings, the “phytotoxicity (relative chlorophyll content)” value is “phytotoxic”. For the same molecule, the “effect of surfactant” value in the data set on F. graminearum [2] is reported as “did not affect”. Further, the “MIC (MIC90, concentration required to inhibit 90% of the growth or more)” value in the data set on F. graminearum [5] (PDB+casamino acids, 24° C., 72 h, tested range 500 to 1 μg/mL) was 31.3 µg/mL.
In the case of `NCC1O[C@H](OC2C(N)CC(N)[C@@H](OC3OCC(O)[C@@H](O)[C@H]3O)[C@H]2O)C(N)[C@@H](O)[C@@H]1O` (stereo partly drawn) [JL39], the “lethality to F. graminearum” value in the data set with F. graminearum [5] is “not lethal”.
As for `NCC1O[C@H](OC2C(N)CC(N)[C@@H](OC3O[C@H](CO)C(O)[C@@H](N)[C@H]3O)[C@H]2O)C(O)[C@@H](O)[C@@H]1O` (stereo partly drawn) [kanamycin A, Kanamycin A], in the data set on F. graminearum [5], the “lethality to F. graminearum” value is given as “not lethal”.
As for `NC[C@H]1O[C@H](O[C@H]2[C@H](O)[C@@H](O[C@H]3O[C@H](CO)[C@@H](O)[C@H](N)[C@H]3O)[C@H](N)C[C@@H]2N)[C@H](N)[C@@H](O)[C@@H]1O` [kanamycin B, Kanamycin B, reference compound], the “antifungal effectiveness against screened fungi” value in the data set with screened fungi (screened fungi of Table 2) is listed as “substantially ineffective”. Moreover, the “lesion development / leaf infection” value in data set [1] is given as “did not prevent leaf infection”. In the data set on wheat seedlings, the phytotoxicity entry is on record as “phytotoxic” and the “phytotoxicity (relative chlorophyll content)” value is on record as “phytotoxic”. Further, the “effect of surfactant” value with F. graminearum [2] is given as “did not affect”. The MIC in data set [9] lay within 980 to 1950 µg/mL (≈ 2030 to 4030 µM).

For the origin of these results see patent US20110130357A1 (priority 2008, published 2011).
